# According to patent publication US20050266105A1, “Compositions comprising natural agents for the treatment of HIV-associated opportunistic infections and complications and methods for preparing and using compositions comprising natural agents” (priority 2004, published 2005):
# Read-outs that look alike come from different tables or passages of the source.
# Assays:
# CEM-SS cells = assay: Compound cytotoxicity (cell viability in the absence of virus, MTS); assay type: cell-based; settings: read-out: TC50 (the source's name)
# Procedure: Similarly, compound cytotoxicity is measured as the % reduction in cell viability resulting from incubation of the compound with the cells (in the absence of virus). The greater the reduction in cell viability, the greater the cytotoxicity of the compound. […] Macroscopic observation of the cells in each well of the microtiter plate confirmed the cytotoxicity results obtained following staining of the cells with the MTS metabolic dye.
# HIV-1RF = assay: HIV-1 cytoprotection assay; assay type: cell-based
# Procedure: ICBG plant samples were tested using an HIV-1 cytoprotection assay. This assay is based on the premise that HIV-1RF is cytopathic and kills CEM-SS cells as it replicates in the culture. Compounds that inhibit HIV-1 replication are therefore able to reduce the amount of viral cytopathic effect that occurs in the culture. As a result, compound activity is measured by determining the amount of cell viability remaining in the cultures following the six day incubation period. The % reduction in viral cytopathic effect is a direct measure of compound activity. The greater the % reduction in viral cytopathic effect, the greater the antiviral activity of the compound. […] Macroscopic observation of the cells in each well of the microtiter plate confirmed the cytotoxicity results obtained following staining of the cells with the MTS metabolic dye.
# MRSA = settings: cited from earlier work
SMILES,CC50 (CEM-SS cells) [nM],"Antiviral activity (comments) (HIV-1RF; HIV-1RF in CEM-SS cells, at concentrations tested)","IC50 (HIV-1RF; HIV-1RF in CEM-SS cells, six day incubation) [nM]",AI (Antiviral Index) (HIV-1RF; TC50 / IC50),MIC (MRSA; MRSA strain 1199-B) [µg/mL],MIC (MRSA; MRSA strain XU212) [µg/mL]
Cc1cn([C@H]2C[C@H](N=[N+]=[N-])[C@@H](CO)O2)c(=O)[nH]c1=O [AZT],> 500,expected level of antiviral activity,< 2,>320,–,–
CC[C@H]1OC(=O)[C@H](C)[C@@H](O[C@H]2C[C@@](C)(OC)[C@@H](O)[C@H](C)O2)[C@H](C)[C@@H](O[C@@H]2O[C@H](C)C[C@H](N(C)C)[C@H]2O)[C@](C)(O)C[C@@H](C)C(=O)[C@H](C)[C@@H](O)[C@]1(C)O [Erythromycin],–,–,–,–,2,4096
CCn1cc(C(=O)O)c(=O)c2cc(F)c(N3CCNCC3)cc21 [Norfloxacin],–,–,–,–,64,8
